Measured values as given in patent publication US20020016346A1, “Method for enhancing outflow of aqueous humor in treatment of glaucoma” (The Regents University of California, a California …, priority 1994, published 2002).
Where two headings read alike, the source gives them in different places.

What was measured:
[1] = tested on: eye of a rabbit; assay: Intra-ocular pressure in rabbits after subconjunctival injection; format: in vivo
Method: Male albino New Zealand rabbits weighing≧2 Kg were used for in vivo experiments performed under various active animal use protocols approved by the Institutional Animal Care and Use Committee at UC Davis. Animals were sedated with an intravenous dose of Napentabarbitol, 1-2 mg/Kg to permit their handling and frequent measurement of intra-ocular pressure (IOP). Topical anesthesia consisting of Proparacaine HCl (Alcaine™) was used for IOP measurements. A pneumatonometer (Mentor O & O Classic Model 30 Penumatonometer™, Norwell, Mass.) calibrated to a known (25 mmHg) pressure prior to each experiment was used for all IOP measurements. This model of Pneumatonometer provides a readout of standard deviation of each measurement; only measurements with a standard deviation of≦1 mmHg were accepted and most were less than 0.5 mmHg. Following sedation, IOP measurements were carried out over at least 30 minutes to assure that a stable baseline IOP was present.
Drugs and/or vehicle was administered to one eye of each animal via subconjunctival injection in order to bypass any barriers to drug penetration, such as an intact corneal and conjunctival epithelium and to achieve rapid and high concentrations of drug, bypassing epithelial barriers. The contralateral eye treated only with vehicle served as a control for each animal. Two syringes were prepared for each experiment, one containing drug and vehicle, the other containing only vehicle. […] Injections raised a prominent bleb, confirming subconjunctival placement of the drug or vehicle. This bleb then smoothed out over about ten minutes, indicating diffusion of the drug or vehicle throughout the subconjunctival space.
Measurements of intra-ocular pressure were taken at various intervals following the subconjunctival administration of the drug and/or vehicle. IOP in both eyes fluctuated over time reflecting the level of anesthesia. During the course of the experiment, the animal handlers and investigators were masked as to which eve had received the drug or control injection.

[2] = tested on: Na+—K+—2Cl− cotransporter
Method: Thus, studies were conducted to determine the magnitude of net K uptake mediated by the TM cell Na^+—K^+—2Cl^− cotransporter. For determination of the net potassium uptake, the potassium contents of TM cells were evaluated by atomic absorption spectrophotometry, as described previously by O'Donnell, M. E. (supra, 1993). Briefly, cells were preincubated in 10 μM bumetanide for 5 minutes, and assayed as described above, with the exception that no ^86Rb was present during the assay. Cell ionic contents were extracted with 5% trichloroacetic acid following removal of extracellular potassium by washing the monolayers with ice-cold 0.1 M MgCl2.

[3] = target: T1, Na—K—Cl cotransport (Bos taurus, UniProt F1MS08); assay: K influx (86Rb) in bovine TM cell monolayers; format: cell-based
T1 sequence (F1MS08 1-1204): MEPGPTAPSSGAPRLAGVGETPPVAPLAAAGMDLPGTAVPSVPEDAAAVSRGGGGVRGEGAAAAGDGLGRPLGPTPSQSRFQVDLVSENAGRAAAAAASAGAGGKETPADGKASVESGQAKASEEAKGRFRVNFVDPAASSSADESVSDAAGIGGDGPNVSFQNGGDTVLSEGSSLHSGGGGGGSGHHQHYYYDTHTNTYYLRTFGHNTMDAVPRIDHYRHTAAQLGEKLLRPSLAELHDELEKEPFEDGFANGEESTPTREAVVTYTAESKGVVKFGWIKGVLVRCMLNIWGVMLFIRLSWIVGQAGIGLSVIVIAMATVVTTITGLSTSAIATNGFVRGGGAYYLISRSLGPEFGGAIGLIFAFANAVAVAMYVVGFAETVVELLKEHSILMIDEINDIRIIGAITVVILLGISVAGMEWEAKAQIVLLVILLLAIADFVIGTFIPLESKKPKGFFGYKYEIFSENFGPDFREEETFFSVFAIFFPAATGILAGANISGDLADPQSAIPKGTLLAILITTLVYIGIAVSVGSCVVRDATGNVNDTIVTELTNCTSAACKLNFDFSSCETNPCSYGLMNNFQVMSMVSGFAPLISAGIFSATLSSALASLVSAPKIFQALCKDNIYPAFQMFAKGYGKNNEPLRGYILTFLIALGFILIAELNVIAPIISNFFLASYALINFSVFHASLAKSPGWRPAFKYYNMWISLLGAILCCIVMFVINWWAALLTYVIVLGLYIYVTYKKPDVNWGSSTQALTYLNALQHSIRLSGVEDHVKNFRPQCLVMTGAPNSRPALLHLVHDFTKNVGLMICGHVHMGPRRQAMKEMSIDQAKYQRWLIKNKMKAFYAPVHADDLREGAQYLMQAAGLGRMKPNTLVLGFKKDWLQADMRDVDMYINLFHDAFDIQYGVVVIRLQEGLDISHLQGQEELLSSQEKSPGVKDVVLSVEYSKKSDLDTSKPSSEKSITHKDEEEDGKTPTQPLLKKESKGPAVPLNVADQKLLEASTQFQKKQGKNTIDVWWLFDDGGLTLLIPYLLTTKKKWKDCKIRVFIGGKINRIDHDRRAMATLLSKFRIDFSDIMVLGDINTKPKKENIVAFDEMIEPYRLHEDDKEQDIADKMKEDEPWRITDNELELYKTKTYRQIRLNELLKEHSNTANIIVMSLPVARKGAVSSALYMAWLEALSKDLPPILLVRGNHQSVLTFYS
Method: Details of this method have been published previously (O'Donnell, M. E., supra, 1989). Briefly, bovine or human TM cell monolayers on 24 well plates were equilibrated for 10 minutes at 37° C. in a Hepes-buffered minimal essential medium (MEM) containing (in mM): 144 Na, 147 Cl, 5.8 K, 1.2 Ca, 4.2 HCO3, 0.4 H2PO4, […], 0.4 SO4, 5.6 glucose and 20 Hepes. […] The assay medium also contained ^86Rb (1 μCi/ml) (Dupont New England Nuclear, Boston, Mass.). The assay was terminated by rinsing the wells with ice-cold isotonic MgCl2, then extracting the contents with 0.2% sodium dodecyl sulfate (SDS), and determining the amount of radioactive contents by liquid scintillation. Osmolarities of all preincubation and assay media were verified by osmometry (Model 3W2, Advanced Instruments, Norwood, Mass.).
The effects of hormones, neurotransmitters and second messengers on Bumetanide-sensitive K influx of bovine trabecular meshwork cells were assessed using the procedures of Example 1. […] The control is the Hepes-buffered medium containing Na, K, Cl, CA and other ions as described in Example 1B. […] The data represent the mean values±SEM of quadruplicate determinations from two experiments.

In the case of CCCCNc1cc(C(=O)O)cc(S(N)(=O)=O)c1Oc1ccccc1 [bumetanide], the “average IOP lowering effect” value ([1]; average of two experiments, FIG. 6) is reported as “over 20%”, the “effect on IOP” value ([1]; bumetanide 10^−5 M in DMSO, 0.1 cc subconjunctival, first animal) is reported as “rapid and pronounced and lasted beyond two hours” and the “bumetanide-sensitive net K uptake” value ([2]; Cl omitted from the incubation medium, n=8) is reported as −2.62±2.82 μmol K/gm protein/min. The “bumetanide-sensitive net K uptake” value ([2]; Na omitted from the incubation medium, n=8) was 1.71±2.49 μmol K/gm protein/min, the “bumetanide-sensitive net K uptake” value ([2]; steady state, 10 μM bumetanide) was 7.78=1.98 μmol K/gm protein/min and the K influx ([3]; 10 μM bumetanide, total K uptake without drug 49±1.47) was 22.09±1.14 μmol K/gm protein/min. The “BUMETANIDE-SENSITIVE K INFLUX” value ([3]; with Na/K pump inhibition (ouabain)) was 20.1 μmol K/gm protein/min and the “BUMETANIDE-SENSITIVE K INFLUX” value ([3]; without Na/K pump inhibition) was 26.9 μmol K/gm protein/min.
